Assay results taken from patent US20230416245A1, “ADENOSINE ANALOGS FOR THE TREATMENT OF DISEASE” (BIOINTERVENE, INC., priority 2020, published 2023).

Key:
ADORA3 = ADORA3 (Homo sapiens (Human), UniProt P0DMS8); test: Intracellular calcium release assay (FLIPR); format: cell-based; conditions: for EC50: CHO-K1 cells, Fluo-4, top concentration 10 μM, read-out: Cell Calcium Assay EC50; for Cell Calcium Efficacy (%): percentage of the response to NECA
Method: Example 32: Intracellular Calcium Release Assay
Cell Culture: The table below lists the cell lines used that stably express the 4 subtypes of adenosine receptors, along with the growth medium used for each:
For experiments with the ADORA1- and ADORA3-expressing cells, the medium was aspirated and the cells washed twice with 10 mL DPBS. Two mL of trypsin was added and incubated at 37° C. for 1 minute. Then 10 mL of platting media was added to terminate the digestion and 1 mL of the solution was taken out for cell counting. ADORA2A- and ADORA2B-expressing cells were thawed rapidly in a 37° C. water bath. Cell suspensions were transferred to 50 mL conical tubes. Plating media was added to the 10 mL mark and then 1 mL taken out for cell counting. The 50 mL tubes containing the various types of cells were centrifuged at 1000 g. Then the supernatants were aspirated, being careful not to aspirate the cells. The cell pellets were resuspended in 3-5 mL platting media, then 0.5 mL was taken out for cell counting. Then the cell suspension was diluted to 1×10^6 cells/mL (20,000 cells per 20 μL per well) in platting medium, and cells were seeded into 384-well cell plates (Greiner-781946). The 384-well cell plate was placed in a 37° C./5% CO2 incubator (Thermo-371, Thermo Scientific) for 16-20 hours.
Preparation of the intracellular calcium imaging agent (Fluo-4 Direct™ Calcium Assay Kit, Invitrogen-F10471, Thermo Scientific): One mL of FLIPR Assay Buffer was added to 77 mg probenecid to make a 250 mM solution, which was used fresh for each day. One vial of Fluo-4 Direct™ crystals was thawed and 10 mL of FLIPR Assay Buffer was added to the vial. 0.2 mL of probenecid was added to each 10 mL vial of Fluo-Direct™ solution, such that the final assay concentration was 2.5 mM. It was vortexed, left to stand >5 min and protected from light. The dye was prepared fresh each day.
Compound Preparation: Compound plates were prepared as follows. First, the test compound was diluted to prepare a 2 mM solution and then 10-point 3-fold serial dilutions were made using ECHO (ECHO 555, LabCyte), then 900 nL was transferred to the compound plate. For all targets, the final top concentration of the test compound was […]. For agonist reference compounds, 10-point and 3-fold serial dilutions were made, then 900 nL was transferred to the assay plate. Then 30 μL of assay buffer was added to the compound plate and then the plate was centrifuged at 1000 rpm for 1 min.
FLIPR Assay: Cell plates were removed from the incubator, to which were added 20 μL 2×Fluo-4 Direct™ solution, then the plates were reincubated in a 5% CO2, 37° C. incubator for 50 min and at RT for 10 min. To run the protocol on the Fluorescent Imaging Plate Reader (FLIPR) TETRA (MD-FT0249, Molecular Devices, Inc.), 10 μL of assay buffer was transferred from the 384-well plate (Greiner-781280) to the cell plates and then the fluorescence signal was read. Then 10 μL of compound solution was transferred from the compound plate to the cell plates and the fluorescence signal was read. The “Max-Min” was calculated, starting from Read 91 to the maximum allowed. For agonists, activation %=(RLU−LC)/(HC−LC)*100, based on the following: RLU=relative light unit, 91 to maximum allowed signal; HC=average signal of the high concentration of agonist; LC=average signal of DMSO well. The data were fitted using GraphPad Prism 5, using the model “log(agonist) vs. response—Variable slope” to determine the EC50 value. The receptor efficacy of the test compound relative to the agonist NECA was calculated as a percentage (%) of the response to […]. Table 10 includes EC50 values for compounds described herein.

[1] = target: human adenosine A3 receptor (Homo sapiens (Human), UniProt P0DMS8); test: Intracellular cAMP levels (inhibition of forskolin-stimulated cAMP production); format: cell-based; conditions: for EC50: CHO cells expressing human adenosine A3 receptors, forskolin 10 μM; for CAMP Efficacy (%): maximal response as percentage of the response produced by 100 nM IB-MECA
Sequence of human adenosine A3 receptor (P0DMS8 whole entry): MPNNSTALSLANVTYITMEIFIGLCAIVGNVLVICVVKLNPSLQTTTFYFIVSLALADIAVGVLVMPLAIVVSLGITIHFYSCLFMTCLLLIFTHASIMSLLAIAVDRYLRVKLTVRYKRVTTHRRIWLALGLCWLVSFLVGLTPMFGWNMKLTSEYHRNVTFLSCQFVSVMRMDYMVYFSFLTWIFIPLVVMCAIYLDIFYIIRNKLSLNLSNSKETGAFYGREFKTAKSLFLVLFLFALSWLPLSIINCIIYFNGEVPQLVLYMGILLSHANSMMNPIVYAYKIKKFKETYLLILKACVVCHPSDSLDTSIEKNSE
From the text: Example 31: Intracellular cAMP Levels
The method followed is that published in Yates L, Clark J H, Martin T J, James S, Broadley K J, Kidd E J. Radioligand binding and functional responses of ligands for human recombinant adenosine A3 receptors. Auton Autacoid Pharmacol. 2006 April; 26(2):191-200.
Materials and Cell Culture: Adenosine deaminase was obtained from Roche (Lewes, UK). Forskolin was obtained from Sigma-Aldrich (Poole, UK). The sources of other materials are provided above in Example 1. CHO-K1 cells stably transfected with the human adenosine A3 receptor were grown in Dulbecco's modified Eagles medium with nutrient mixture F12 containing NaHCO3 and Glutamax. Media was supplemented with 10% fetal calf serum, geneticin (G418; 0.67 mg/mL), hygromycin (500 μg/mL) and adenosine deaminase (1 U/mL). Cells were maintained at 37° C. with 5% CO2 in air.
cAMP Measurements: Intracellular cAMP production was measured directly using a non-acetylation cAMP enzyme immunoassay (Amersham Biosciences, Little Chalfont, UK). Cultured CHO cells expressing human adenosine A3 receptors were allowed to plate overnight in 96-well plates in culture medium containing adenosine deaminase. Twenty-four hours later, they were incubated with adenosine analogues or compounds of the invention (0.1 nM-1 μM) for 5 min at 37° C., followed by incubation with forskolin (10 μM) for 10 min. The cells were then lysed with 200 μL of lysis reagent 1 provided with the kit for 10 min to release intracellular cAMP. Aliquots of the supernatants were then transferred to a 96-well microtitre plate coated with donkey anti-rabbit IgG; 100-μL cAMP standards (12.5-3200 fmol/well) were also added to the microtitre plate; 100 μL of rabbit anti-cAMP antibody was added to all wells and incubated at 2-5° C. for 2 h. The antiserum was made up in lysis reagent 2, which sequesters the key component in lysis reagent 1 and ensures that cAMP is free for subsequent analysis. Then 50 μL of cAMP peroxidase conjugate was added to all wells and left to incubate for 60 min at 2-5° C. to allow competition for the antibody between the un-labelled and horse radish peroxidase (HRP)-labelled cAMP. Wells were then washed with buffer and 150 μL of enzyme substrate containing 3,3′,5,5′-tetramethylbenzidine/hydrogen peroxide in 20% (v/v) dimethylformamide was added to each well and left to incubate for 60 min on a Titramax 100 microtitre plate shaker (Heidolph Instruments, Schwabach, Germany) at room temperature for color development. The reaction was stopped by the addition of 100 μL of 1 M sulfuric acid and the optical density (OD) read at 450 nm on a spectrophotometric MRX microplate reader (Dynex Technologies, Chantilly, VA, USA).
Analyses: Each sample/standard was analyzed in duplicate and the resulting OD values averaged. The percent bound (B/Bo) for each standard and sample was calculated using the following relationship: […]
where B is the specific OD for standard/sample and Bo is the specific OD for the zero standard. A standard curve was generated by plotting % B/Bo as a function of the log fmol cAMP standard per well. The fmol per well value for cAMP in each sample was then read from the graph. The results are expressed as a percent of control agonist response: (measured response/control response)*100 in the presence of the compounds of the invention. Concentration-response curves for inhibition of cAMP production were constructed for all compounds of the invention and reference compounds. The EC50 values (concentration producing a half-maximal response) were determined by non-linear regression analysis of the concentration-response curves generated with mean replicate values using Hill equation curve fitting, according to the equation:
where Y=response, A=left asymptote of the curve, D=right asymptote of the curve, C=compound concentration, and C50=EC50, and nH=slope factor. […]

Sequence of ADORA3 (P0DMS8 whole entry): as above

SMILES | EC50 (ADORA3) | Cell Calcium Efficacy (%) (ADORA3) | EC50 [1] | CAMP Efficacy (%) [1]
O[C@@H]1[C@H](O)[C@@H]2C[C@@H]2[C@H]1n1cnc2c(NCCF)nc(Cl)nc21 [Compound 36, (1R,2R,3S,4R,5S)-4-(2-chloro-6-((2-fluoroethyl)amino)-9H-purin-9-yl)bicyclo[3.1.0]hexane-2,3-diol] | 9.2 nM | 44.9% | – | –
O[C@@H]1[C@H](O)[C@@H]2C[C@@H]2[C@H]1n1cnc2c(NCC(F)(F)F)nc(Cl)nc21 [Compound 37, (1R,2R,3S,4R,5S)-4-(2-chloro-6-((2,2,2-trifluoroethyl)amino)-9H-purin-9-yl)bicyclo[3.1.0]hexane-2,3-diol] | 12.8 nM | 49.4% | – | –
O[C@@H]1[C@H](O)[C@@H]2C[C@@H]2[C@H]1n1cnc2c(NCC(F)F)nc(C#CC3CC3)nc21 [Compound 38, (1R,2R,3S,4R,5S)-4-(2-(cyclopropylethynyl)-6-((2,2-difluoroethyl)amino)-9H-purin-9-yl)bicyclo[3.1.0]hexane-2,3-diol] | 14.5 nM | 24.7% | 1.8 nM | 65.1%
CCNc1nc(C#CC2CC2)nc2c1ncn2[C@H]1[C@H](O)[C@H](O)[C@@H]2C[C@@H]21 [Compound 39, (1R,2R,3S,4R,5S)-4-(2-(cyclopropylethynyl)-6-(ethylamino)-9H-purin-9-yl)bicyclo[3.1.0]hexane-2,3-diol] | 9.8 nM | 15.4% | 0.2 nM | 54.4%
O[C@@H]1[C@H](O)[C@@H]2C[C@@H]2[C@H]1n1cnc2c(NCCF)cc(Cl)nc21 [Compound 41, (1R,2R,3S,4R,5S)-4-(5-chloro-7-((2-fluoroethyl)amino)-3H-imidazo[4,5-b]pyridin-3-yl)bicyclo[3.1.0]hexane-2,3-diol] | 36.7 nM | 31.3% | – | –
O[C@@H]1[C@H](O)[C@@H]2C[C@@H]2[C@H]1n1cnc2c(NCC(F)(F)F)cc(Cl)nc21 [Compound 42, (1R,2R,3S,4R,5S)-4-(5-chloro-7-((2,2,2-trifluoroethyl)amino)-3H-imidazo[4,5-b]pyridin-3-yl)bicyclo[3.1.0]hexane-2,3-diol] | 43.4 nM | 45.8% | – | –
CCNc1cc(Cl)nc2c1ncn2[C@H]1[C@H](O)[C@H](O)[C@@H]2C[C@@H]21 [Compound 43, (1R,2R,3S,4R,5S)-4-(5-chloro-7-(ethylamino)-3H-imidazo[4,5-b]pyridin-3-yl)bicyclo[3.1.0]hexane-2,3-diol] | 5.1 nM | 50.3% | – | –
Cc1cc(NCC(F)F)c2ncn([C@H]3[C@H](O)[C@H](O)[C@@H]4C[C@@H]43)c2n1 [Compound 47, (1R,2R,3S,4R,5S)-4-(7-((2,2-difluoroethyl)amino)-5-methyl-3H-imidazo[4,5-b]pyridin-3-yl)bicyclo[3.1.0]hexane-2,3-diol] | 51.2 nM | 33.1% | – | –
Cc1cc(NCCF)c2ncn([C@H]3[C@H](O)[C@H](O)[C@@H]4C[C@@H]43)c2n1 [Compound 48, (1R,2R,3S,4R,5S)-4-(7-((2-fluoroethyl)amino)-5-methyl-3H-imidazo[4,5-b]pyridin-3-yl)bicyclo[3.1.0]hexane-2,3-diol] | 37.6 nM | 13.1% | – | –
CCNc1cc(C)nc2c1ncn2[C@H]1[C@H](O)[C@H](O)[C@@H]2C[C@@H]21 [Compound 49, (1R,2R,3S,4R,5S)-4-(7-(ethylamino)-5-methyl-3H-imidazo[4,5-b]pyridin-3-yl)bicyclo[3.1.0]hexane-2,3-diol] | 17.1 nM | 6.8% | – | –
Cc1cc(NCc2cc(F)ccc2F)c2ncn([C@H]3[C@H](O)[C@H](O)[C@@H]4C[C@@H]43)c2n1 [Compound 50, (1R,2R,3S,4R,5S)-4-(7-((2,5-difluorobenzyl)amino)-5-methyl-3H-imidazo[4,5-b]pyridin-3-yl)bicyclo[3.1.0]hexane-2,3-diol] | 54 nM | 12.3% | – | –
CCNc1nc(Cl)nc2c1ncn2[C@H]1[C@H](O)[C@H](O)[C@]2(C(F)F)C[C@H]12 [Compound 53, (1S,2R,3S,4R,5S)-4-(2-chloro-6-(ethylamino)-9H-purin-9-yl)-1-(difluoromethyl)bicyclo[3.1.0]hexane-2,3-diol] | ≥ 10000 nM | 0.6% | – | –
O[C@@H]1[C@H](O)[C@@H]2C[C@@H]2[C@H]1n1cnc2c(NCC(F)F)nc(C3CC3)nc21 [Compound 58] | 25.4 nM | 14.2% | – | –
Cc1cc(COc2ccc(Cl)cc2CNc2cc(Cl)nc3c2ncn3[C@H]2[C@H](O)[C@H](O)[C@@H]3C[C@@H]32)on1 [Compound 75, (1R,2R,3S,4R,5S)-4-(5-chloro-7-((5-chloro-2-((3-methylisoxazol-5-yl)methoxy)benzyl)amino)-3H-imidazo[4,5-b]pyridin-3-yl)bicyclo[3.1.0]hexane-2,3-diol] | ≥ 10000 nM | 1.7% | – | –
O[C@@H]1[C@H](O)[C@@H]2C[C@@H]2[C@H]1n1cnc2c(NCC(F)F)cc(C3CC3)nc21 [Compound 78] | 110 nM | 7.2% | – | –
